Laboratory results taken from ChEMBL document CHEMBL1649532, “Trypanocidal activity of 8-methyl-5'-{[(Z)-4-aminobut-2-enyl]-(methylamino)}adenosine (Genz-644131), an adenosylmethionine decarboxylase inhibitor” (Antimicrob Agents Chemother, 2009).
The source made the active and inactive calls. The rule behind the calls is not given here.

Experiments:
[1] = test system: Trypanosoma brucei rhodesiense; test: Trypanocidal activity against Trypanosoma brucei rhodesiense KETRI243 infected in mouse assessed as protection against trypanosomal infection at 10 mg/kg, ip QD administered 24 hrs postinfection; assay type: functional, organism-based; parameters: dose 10 mg/kg
[2] = test system: Trypanosoma brucei rhodesiense; test: Trypanocidal activity against Trypanosoma brucei rhodesiense KETRI1992 infected in mouse assessed as protection against trypanosomal infection at 50 mg/kg, ip QD administered 24 hrs postinfection; assay type: functional, organism-based; parameters: dose 50 mg/kg
[3] = test system: Trypanosoma brucei rhodesiense; test: Trypanocidal activity against Trypanosoma brucei rhodesiense KETRI1992 infected in mouse assessed as cure rate at 25 mg/kg, ip BID administered 24 hrs postinfection; assay type: functional; conditions: route intraperitoneal
[4] = test system: Trypanosoma brucei rhodesiense; test: Trypanocidal activity against Trypanosoma brucei rhodesiense KETRI2002 infected in mouse assessed as average survival time at 10 mg/kg, ip QD administered 24 hrs postinfection; assay type: functional; conditions: route intraperitoneal
[5] = test system: Trypanosoma brucei rhodesiense; test: Trypanocidal activity against Trypanosoma brucei rhodesiense KETRI2002 infected in mouse assessed as average survival time at 25 mg/kg, ip BID administered 24 hrs postinfection; assay type: functional; conditions: route intraperitoneal
[6] = test system: Trypanosoma brucei brucei; test: Trypanocidal activity against Trypanosoma brucei brucei 667 infected in mouse assessed as average day of relapse of trypanosomal infection at 100 mg/kg, ip BID for 7 days; assay type: functional; conditions: route intraperitoneal
[7] = test system: Trypanosoma brucei rhodesiense; test: Trypanocidal activity against Trypanosoma brucei rhodesiense KETRI243 infected in mouse assessed as protection against trypanosomal infection at 25 mg/kg, ip QD administered 24 hrs postinfection; assay type: functional, organism-based; parameters: dose 25 mg/kg
[8] = test system: Trypanosoma brucei brucei; test: Trypanocidal activity against Trypanosoma brucei brucei EATRO infected in mouse assessed as mean survival time at 10 mg/kg, ip QD for 4 days; assay type: functional; conditions: route intraperitoneal
[9] = test system: Trypanosoma brucei brucei; test: Trypanocidal activity against Trypanosoma brucei brucei EATRO infected in mouse assessed as mean survival time at 25 mg/kg, ip BID for 4 days; assay type: functional; conditions: route intraperitoneal
[10] = test system: Trypanosoma brucei brucei; test: Trypanocidal activity against Trypanosoma brucei brucei EATRO infected in mouse assessed as mean survival time at 25 mg/kg, ip QD for 4 days; assay type: functional; conditions: route intraperitoneal
[11] = test system: Trypanosoma brucei brucei; test: Trypanocidal activity against Trypanosoma brucei brucei EATRO infected in mouse assessed as protection against trypanosomal infection at 2 mg/kg, ip QD for 4 days; assay type: functional, organism-based; parameters: dose 2 mg/kg
[12] = test system: Trypanosoma brucei brucei; test: Trypanocidal activity against Trypanosoma brucei brucei 667 infected in mouse assessed as average day of relapse of trypanosomal infection at 10 mg/kg, ip BID for 7 days; assay type: functional; conditions: route intraperitoneal
[13] = test system: Trypanosoma brucei rhodesiense; test: Trypanocidal activity against Trypanosoma brucei rhodesiense KETRI1992 infected in mouse assessed as protection against trypanosomal infection at 10 mg/kg, ip QD administered 24 hrs postinfection; assay type: functional, organism-based; parameters: dose 10 mg/kg
[14] = test system: Trypanosoma brucei rhodesiense; test: Trypanocidal activity against Trypanosoma brucei rhodesiense KETRI243 infected in mouse assessed as protection against trypanosomal infection at 50 mg/kg, ip QD administered 24 hrs postinfection; assay type: functional, organism-based; parameters: dose 50 mg/kg
[15] = test system: Trypanosoma brucei rhodesiense; test: Trypanocidal activity against Trypanosoma brucei rhodesiense KETRI2002 infected in mouse assessed as average survival time at 50 mg/kg, ip QD administered 24 hrs postinfection; assay type: functional; conditions: route intraperitoneal
[16] = test system: Trypanosoma brucei rhodesiense; test: Trypanocidal activity against Trypanosoma brucei rhodesiense KETRI1992 infected in mouse assessed as average survival time at 50 mg/kg, ip QD administered 24 hrs postinfection; assay type: functional; conditions: route intraperitoneal
[17] = test system: Trypanosoma brucei rhodesiense; test: Trypanocidal activity against Trypanosoma brucei rhodesiense KETRI1992 infected in mouse assessed as protection against trypanosomal infection at 25 mg/kg, ip QD administered 24 hrs postinfection; assay type: functional, organism-based; parameters: dose 25 mg/kg
[18] = test system: Trypanosoma brucei rhodesiense; test: Trypanocidal activity against Trypanosoma brucei rhodesiense KETRI2002 infected in mouse assessed as average survival time at 50 mg/kg, ip BID administered 24 hrs postinfection; assay type: functional; conditions: route intraperitoneal
[19] = test system: Trypanosoma brucei brucei; test: Trypanocidal activity against Trypanosoma brucei brucei EATRO infected in mouse assessed as mean survival time at 2 mg/kg, ip BID for 4 days; assay type: functional; conditions: route intraperitoneal
[20] = test system: Trypanosoma brucei brucei; test: Trypanocidal activity against Trypanosoma brucei brucei EATRO infected in mouse assessed as mean survival time at 1 mg/kg, ip QD for 4 days; assay type: functional; conditions: route intraperitoneal
[21] = test system: Trypanosoma brucei rhodesiense; test: Trypanocidal activity against Trypanosoma brucei rhodesiense KETRI243 infected in mouse assessed as average survival time at 10 mg/kg, ip QD administered 24 hrs postinfection; assay type: functional; conditions: route intraperitoneal
[22] = test system: Trypanosoma brucei brucei; test: Trypanocidal activity against Trypanosoma brucei brucei 667 infected in mouse assessed as average day of relapse of trypanosomal infection at 50 mg/kg, ip BID for 14 days; assay type: functional; conditions: route intraperitoneal
[23] = test system: Trypanosoma brucei brucei; test: Trypanocidal activity against Trypanosoma brucei brucei EATRO infected in mouse assessed as mean survival time at 2.5 mg/kg, ip QD for 4 days; assay type: functional; conditions: route intraperitoneal
[24] = test system: Trypanosoma brucei brucei; test: Trypanocidal activity against Trypanosoma brucei brucei EATRO infected in mouse assessed as mean survival time at 2.5 mg/kg, ip BID for 4 days; assay type: functional; conditions: route intraperitoneal
[25] = test system: Trypanosoma brucei rhodesiense; test: Trypanocidal activity against Trypanosoma brucei rhodesiense KETRI1992 infected in mouse assessed as protection against trypanosomal infection at 50 mg/kg, ip BID administered 24 hrs postinfection; assay type: functional, organism-based; parameters: dose 50 mg/kg
[26] = test system: Trypanosoma brucei rhodesiense; test: Trypanocidal activity against Trypanosoma brucei rhodesiense KETRI2002 infected in mouse assessed as average survival time at 25 mg/kg, ip QD administered 24 hrs postinfection; assay type: functional; conditions: route intraperitoneal
[27] = test system: Trypanosoma brucei rhodesiense; test: Trypanocidal activity against Trypanosoma brucei rhodesiense KETRI2002 infected in mouse assessed as cure rate at 50 mg/kg, ip QD administered 24 hrs postinfection; assay type: functional; conditions: route intraperitoneal
[28] = test system: Trypanosoma brucei brucei; test: Trypanocidal activity against Trypanosoma brucei brucei 667 infected in mouse assessed as average day of relapse of trypanosomal infection at 25 mg/kg, ip BID for 7 days; assay type: functional; conditions: route intraperitoneal
[29] = test system: Trypanosoma brucei rhodesiense; test: Trypanocidal activity against Trypanosoma brucei rhodesiense KETRI2002 infected in mouse assessed as protection against trypanosomal infection at 10 mg/kg, ip QD administered 24 hrs postinfection; assay type: functional, organism-based; parameters: dose 10 mg/kg
[30] = test system: Trypanosoma brucei brucei; test: Trypanocidal activity against Trypanosoma brucei brucei EATRO infected in mouse assessed as protection against trypanosomal infection at 2.5 mg/kg, ip BID for 4 days; assay type: functional, organism-based; parameters: dose 2.5 mg/kg
[31] = test system: Trypanosoma brucei brucei; test: Trypanocidal activity against Trypanosoma brucei brucei 667 infected in mouse assessed as average day of relapse of trypanosomal infection at 50 mg/kg, ip BID for 7 days; assay type: functional; conditions: route intraperitoneal

Cc1nc2c(N)ncnc2n1[C@@H]1O[C@H](CN(C)C/C=C\CN)[C@@H](O)[C@H]1O
Activity [1]: inactive
Activity [2]: inactive
Activity [3]: 60%
MST [4]: 16 days
MST [5]: 19.3 days
MST [6]: 68.8 days
Activity [7]: inactive
MST [8]: >35 days
MST [9]: >35 days
MST [10]: >35 days
Activity [11]: Active
MST [12]: 53 days
Activity [13]: inactive
Activity [14]: inactive
MST [15]: 21 days
MST [16]: 20.2 days
Activity [17]: inactive
MST [18]: 22 days
MST [19]: >35 days
MST [20]: 13.5 days
MST [21]: 13.2 days
MST [22]: 63.4 days
MST [23]: 21 days
MST [24]: >35 days
Activity [25]: inactive
MST [26]: 20 days
Activity [27]: 80%
MST [28]: 61.7 days
Activity [29]: inactive
Activity [30]: Active
MST [31]: 59 days
